Data set [1] can be described thus: Standard laboratory biodegradation tests (OECD 301A, 301B, 301D, 301E, 306). The conditions noted are these: 301E and OECD 306 seawater test. The source says:
The above Log K values show the dramatically greater chelation strength of EDTA as compared to HEIDA. One would expect that the chelating agent with the greatest metal ion affinity (in this case, EDTA) would have the better performance for removing the soil containing Ca, Mg, and Fe3+.

Data set [2] in a line: CSMA DCC-16 scrubber test for removal of lime soap (panel rating). The note with it: panel scale 0 to 5; 1 gram cleaning solution, 30 seconds, 6 cycles at 454 grams of force; formulation with 3.2% chelant salt. The source says:
Black ceramic tiles (meeting ANSI standard A371.1, 4¼″ square) are soiled as directed by the procedure described in […] Specialties Manufacturers Association DCC-16, (CSMA Detergents Division Test Methods Compendium—Third Edition—May 1995—Pages I-51 to I-55) “Guidelines for Evaluating the Efficacy of Bathroom Cleaners, Part 2: Scrubber Test for Measuring the Removal of Lime Soap.”. The principal metals present in the soil mixture used in the tile cleaning test are calcium, followed by magnesium, present as their highly insoluble stearate salts (soap scum). Cleaning solution formulations are prepared as described in the previous example. To the surface of the soiled tiles on the scrubbing apparatus, 1 gram of cleaning solution is sprayed and allowed to stand for 30 seconds. The tile is then scrubbed with a pre-moistened sponge with 454 grams of force for 6 cycles (total of 12 passes over the soiled tile). The tile is then rinsed with water and allowed to air dry. Panelists judge the cleanliness of the tiles on a scale from 0 to 5 (with “0” for completely dirty and “5” for completely cleaned), and the results of the observations are averaged.

A short description of data set [3]: ASTM D5343 cleaning performance of ceramic tile cleaners (number of strokes). The conditions noted are these: ASTM D5343 tile cleaning test. Here is the method:
Cleaning formulations are prepared to contain the following (by weight): 2.62% Sodium dodecylbenzene sulfonic acid, 2.62% cocoamidopropyl betaine (Lonzaine C), 2.62% ethylene glycol butyl ether (Dowanol EB™), 3.2% of the chelant salt (except for the blank, which contains all components except the chelant), and the balance water. Thus the formulation of Example 31 contains 3.2% by weight of the chelant salt (in this case, K2HEIDA), and so on for Examples 32 and 33 which evaluate (K)1.8(Na)0.2(HEIDA), and (K)1.6(Na)0.4(HEIDA), respectively, as well as Comparative Examples 27-30 which evaluate the formulations containing Na4EDTA, Na2HEIDA, K4EDTA, and (K)1.0(Na)1.0(HEIDA), respectively.
The cleaning ability of these compositions is determined according to ASTM D5343, “Standard Guide for Evaluating Cleaning Performance of Ceramic Tile Cleaners:” using soiled white bathroom tiles as directed by the procedure. […] 10 ml of the cleaning formulation is placed on the face of a pre-moistened sponge, then the number of strokes (under 454 grams of force) are determined to achieve soil removal of 90% or greater. The number of strokes required by each formulation to obtain 90% or greater soil removal is recorded for each cleaning formulation.

The conditions of data set [4]: overall constant, log of [metal complex]/([free metal][free ligand]); cited from earlier work.
The conditions of data set [5]: overall constant, log of [metal complex]/([free metal][free ligand]); cited from earlier work. This is another data set of the same source.
The nature of data set [6]: Calcium oxalate titration. Type of data set: physicochemical. The note with it: pH about 11.6; titrated with 0.5 M CaCl2 to first faint permanent turbidity. The source says: The primary metal present in the standard ASTM soil is calcium. One method of estimating the calcium control performance of a chelating agent is to perform a calcium titration that utilizes the tendency to produce a calcium precipitate when a given amount of chelant can no longer control any additional added calcium, thus producing a visible precipitate. Using such a titration test, one normally deems the best chelants for calcium control as those that accept the most calcium before the precipitate appears per a given unit of chelating agent. A standard titration test often employed to determine a chelant's calcium control effectiveness is the calcium oxalate titration. In this titration, standard calcium chloride titrant is added to a measured amount of chelating agent and the onset of calcium oxalate precipitate (detected as the first permanent turbidity that forms) defines the amount of calcium that can be controlled. Strong chelants accept a mole-for-mole amount of calcium, while weaker chelants will accept less than a mole-for-mole amount of calcium in this titration. […]

The conditions of data set [7]: overall constant, log of [metal complex]/([free metal][free ligand]); cited from earlier work. This is another data set of the same source.

Structures are written as SMILES. Entries after “also recorded” stand apart in the source; their conditions may differ.

On to `O=C([O-])CN(CCO)CC(=O)[O-].[K+].[K+]` [Example K2HEIDA], for which the biodegradability entry in data set [1] is “readily biodegradable”. Besides, the “Cleaning rating (higher is better)” value in data set [2] is listed as 4.67 (+/−0.26). Further, the “cleaning performance compared in words” value in data set [3] is on record as “equal performance; also recorded: performs equally as well as K4EDTA”.

`O=C([O-])CN(CCN(CC(=O)[O-])CC(=O)[O-])CC(=O)[O-].[K+].[K+].[K+].[K+]` [Example K4EDTA]: the “Cleaning rating (higher is better)” value in data set [2] is 3.60 (+/−0.13).

Consider `O=C(O)CN(CCN(CC(=O)O)CC(=O)O)CC(=O)O` [EDTA, ethylene diamine tetraacetate], for which, in data set [4], the “Log K Ca” value was 10.7. For the same compound, the “Log K Mg” value in data set [5] is listed as 8.7. Also, the “% Molar Chelation of calcium (max. = 100)” value in data set [6] was determined as 100%. In addition, the “Log K Fe3+” value in data set [7] is listed as 25.1.
